Data set [1] relates to duration of xylazine/ketamine-induced anesthesia. The data set can be described thus: Xylazine/ketamine-induced anesthesia. Particulars: 10~100 μmol/kg s.c., 1 h before anesthesia. As to the method: After loss of the righting reflex (i.e., when a mouse remained on its back and no longer spontaneously righted itself to a prone position), the duration of anesthesia was measured until its return as the endpoint.

A further data set concerns PDE4. Kind of data set: Inhibition of PDE4 activity, two-step procedure and Lineweaver-Burk analysis. Format: biochemical, guinea pig. Here is the method: Activities of PDE1~5 in the homogenate of guinea pig lungs or hearts were measured by a two-step procedure according to the previous method, using cAMP with [^3H]-cAMP or cGMP with [^3H]-cGMP as substrates. […] The reagents and homogenate were mixed on ice, and the reaction was initiated by transferring the mixture to a water bath at 37°C. Following a 30-min incubation, the reaction was stopped by transferring the reaction vessel to a bath of boiling water for 3 min. After cooling on ice, 20 μl of a 1 mg/ml solution of Crotalus atrox snake venom was added to the reaction mixture, and the mixture was incubated at 37°C for 10 min. Unreacted [^3H]-cAMP or [^3H]-cGMP was removed by the addition of 500 μl of a 1-in-1 Tris-HCl (40 mM) buffer suspension of Dowex resin (1 × 8-200) with incubation on ice for 30 min. Each tube was then centrifuged at 3700 g for 2 min, and 150 μl of the supernatant was removed for liquid scintillation counting. […] The total protein in each fraction used was assayed according to a previous method. PDE activities are reported as nmol/mg/min.

The record followed here is PMC3225327 (Journal of Biomedical Science, 2011).

As a reminder, the Ki is a measure of affinity in units of concentration, obtained from inhibition or displacement. Broadly, the IC50 is the point on the concentration scale where inhibition reaches its midpoint. The low end stands for inhibition by little substance, the high end for a need for much substance.

`COc1cc(O)c2c(c1)O[C@H](c1ccc(OC)c(OC)c1)CC2=O` [HDME, hesperetin-7,3'-O-dimethylether]: in data set [1], the “effect on duration of xylazine/ketamine-induced anesthesia” value is recorded as “did not significantly influnce”. Further, the “mode of PDE4 inhibition” value in the data set on PDE4 (Lineweaver-Burk analysis, inhibitor 1~10 μM) is “competitively inhibited”. The Ki at PDE4 (Lineweaver-Burk analysis, inhibitor 1~10 μM, substrate cAMP, read-out: dissociation constant for inhibitory binding (Ki), PDE4) came to 2.1 ± 1.3 µM. In the data set on PDE4 (homogenate of guinea pig lungs or hearts), this compound returned an IC50 of 3 ± 0.9 µM.
